What all share (type): cell-based
The test system of experiment [1] is Escherichia coli (10536 strain). As to the kind of experiment: Antimicrobial efficacy, 15 seconds contact suspension assay (Examples 1 and 3). To be noted: for NMBS: Example 3, gamma-terpineol, concentrations (% w/v) as given per example; for NMBS / NMBS (mean bacterial survival): contact time 15 seconds; for NMBS (mean bacterial survival): phenol and terpineol concentration (% w/v) as given per example, 0 = complete kill, triplicate; for MBC (Minimum Biocidal Concentration): lowest concentration with complete kill after 15 seconds contact, active alone, upper boundary to the MBC. On the procedure:
The efficacies of antimicrobial agents can be usefully compared by determining the Minimum Biocidal Concentration (MBC). The MBC is defined as the lowest absolute concentration of the particular active that provides complete kill (zero bacterial growth).
ΣFBC=FBC(component 1)+FBC(component 2)+FBC(component 3)+ . . . etc
such that • ΣFBC≧1 corresponds to additive or antagonistic bactericidal activity • ΣFBC<1 corresponds to synergistic bactericidal activity
Antimicrobial efficacy is tested against a representative pathogenic bacterial organism, Gram negative Escherichia coli. Concentrations of actives are expressed in terms of the percentage weight/volume (% w/v) throughout Example 1.
An overnight culture of Escherichia coli (10536 strain) was prepared in 50 ml total volume of TSB broth, grown for ca. 18 hrs at 37° C. and shaken at 150 rpm. 1 ml of this overnight E. coli culture was transferred to 50 ml of fresh TSB broth and incubated at 37° C. at 150 rpm for ca. 4 hours. This culture was separated into equal volumes and centrifuged at 4000 rpm for 15 minutes, washed with sterile saline (0.85% NaCl), centrifuged once more and re-suspended in saline to give a final concentration of 0.8 OD620 equivalent to about 10^8 cells per millilitre for this particular organism. Here, OD620 indicates the absorbance of a sample in a cuvette of 1.0 cm path length at a wavelength of 620 nm. This bacterial stock was used for assaying against antimicrobial actives (in triplicate).
The following assay describes the testing of 8 materials using 6 dilutions across half of a 96-well micro titre plate (MTP). Using this approach it is possible to assay 16 actives (without replicates) with one full dilution plate, replicating this set up in two halves of the plate columns, 1-6 and 7-12.
1M solutions of the test actives were prepared in dimethylsulphoxide (DMSO).
Aliquots (270 μl) of the materials at 1.11 times the final concentration were dispensed into the wells of the MTP along one column (A1-H1). This MTP was labelled as the “Screening plate”.
In another MTP, labelled as the “Dilution plate”, 270 μl of D/E neutralising solution from DIFCO Composition was added to column 1. The composition of the neutralising solution was as follows: pancreatic digest of casein, 5.0 g/L; Yeast Extract, 2.5 g/L; Dextrose, 10 g/L, sodium thioglycollate, 1.0 g/L, sodium thiosulphate, 6.0 g/L; sodium bisulphite, 2.5 g/L; Polysorbate 80, 5.0 g/L; lecithin 7.0 g/L; bromocresol purple, 0.02 g/L with a pH in the range 7.6±0.2.
270 μl of tryptone diluent solution was added to all the remaining wells of the Dilution MTP (columns 2-6).
Bacterial stock (30 μl) was then added to the prepared 270 μl of the solution of actives in the Screening Plate and mixed, using a multichannel pipette with 8 tips to aspirate and dispense the same volume of bacterial stock in parallel to 8 wells in rows A-H. After a contact time of 15 seconds, the mixtures were quenched by transferring 30 μl volumes of the mixtures into the 270 μl D/E neutralising solution in the prepared dilution plate, using aspiration to mix. After exactly 5 minutes in the D/E neutralising solution, 30 μl volumes were transferred from column 1 to column 2 of the Dilution MTP and mixed, before transferring further 30 μl volumes from column 2 into column 3. This process was repeated serially diluting the bacteria across the plate to column 6.
30 μl volumes from each well in the Dilution MTP were transferred onto pre-labelled segment of Tryptone Soya Agar (TSA) plates starting from the lowest bacterial concentration (highest dilution, column 6) to the highest bacterial concentration (column 1). The TSA plates were allowed to stand for ca. 2 hours so that the 30 μl inocula spots could dry and the plates were then inverted and incubated overnight at 37° C. before enumerating the bacterial colonies at the labelled dilutions to determine the effects of the actives on bacterial growth.

In experiment [2] the test system is Escherichia coli (E. coli - ATCC #10536). As to the kind of experiment: Automated assessment of efficacy in surfactant base (Example 4). The settings on record: for MBC: in 2.85% sodium cocoyl glycinate + 1.85% sodium lauroamphoacetate solution at pH 10; for 15 second bactericidal efficacy (in words): in combination with alpha-terpineol at concentrations lower than their MBC, surfactant formulation. On the procedure: In these examples, the efficacy of combinations of isopropylmethylphenols and terpineol were tested in a surfactant cleansing formulation comprising 2.85% sodium cocoyl glycinate and 1.85% sodium lauroamphoacetate. This corresponds to a 50% in use dilution with water of a typical neat formulation containing 5.7% cocoyl glycinate and 3.7% % sodium lauroamphoacetate during hand washing. Solutions were prepared such that the concentrations of the surfactant components and test actives were 1.1 times the final desired concentration in order to allow for dilution with the bacterial inoculum in the test. The solutions were manually adjusted to pH 10.0 by dropwise addition of sodium hydroxide solution, as measured with a pH meter at ambient temperature. Solutions of the isopropylmethylphenols and/or terpineols were prepared at a maximum of 24 hours before testing. The same terpineol was used as in Example 1.
The efficacy of the combinations of the present invention was determined against the same bacterium as in Example 1, Escherichia coli (E. coli—ATCC #10536), at a concentration of approximately 1×10^8 bacteria per mL.
Tests were conducted using standard microtiter plate assays using an automated liquid handling system. 270 μl of the surfactant test solution was pipetted into each well of the microtitre plate (Nunc F Gamma Irradiated 96F untreated microtitre plates of clear polystyrene) and 30 μl of the bacterial suspension was then added. After exactly 15 seconds of bacterial exposure, a 30 μl volume of bacterial cells was withdrawn and transferred to 270 μl of D/E quench solution. After 5 minutes in the D/E quench, the optical density (OD) was measured for each plate in turn at two specific wavelengths (450 nm and 590 nm). These provide a dual check of antimicrobial activity, as the OD450 reading is specific for the yellow colour of D/E quench when bacterial growth is observed, whereas OD590 is specific for the initial purple colour of the D/E quench which is retained if no bacterial growth is observed. After the time zero OD measurements, plates were then incubated at 37° C. overnight (16 hours) before repeating the OD measurements. Delta OD values were calculated by subtracting […] at time=16 hours.
Bacterial growth is observed as an increase in OD450 and a decrease in OD590. To identify antibacterially efficacious systems (those preventing appreciable bacterial growth after incubation), the following threshold changes in OD readings have been adopted: if (1). OD450 increases by less than 0.2 absorbance unit (AU) on incubation and (2). OD590 decreases by less than 0.35 AU on incubation. Conversely, where OD450 increases by more than 0.1 AU and OD590 decreases by more than 0.1 AU after incubation, corresponding to a colour shift from purple to yellow, the test system allows bacterial growth and is not deemed efficacious. Four replicate measurements in the same plate have been made for each test system. The number of replicate wells showing either bacterial growth or no growth is also readily assessed by eye by following the colour change. Thymol and terpineol were tested both alone and in combination for comparison purposes.
In each case, binary mixtures were assessed in the weight to weight ratio isopropylmethylphenol to alpha terpineol of 1:2.5.

The test system is the same in experiment [3]. The experiment in a line: High resolution MBC synergy assay in phosphate buffer containing 35% dipropylene glycol (Example 2). To be noted: for ΣFBC: calculated from Ca/MBCA + Cb/MBCB; for MBC of the component alone (MBCA, MBCB): complete kill in 15 seconds, phosphate buffer, 35% DPG. On the procedure:
The materials were sourced in the same way as for Example 1. Synergy tests were conducted using standard microtiter plate assays with phosphate buffer containing 35% dipropylene glycol (DPG). […] The MBC plate was inoculated one column at a time with the test microorganism. An aliquot of the inoculated well was transferred at 15 seconds to a plate containing a neutralizing agent (D/E Neutralizing Broth), mixed and held for 5 minutes before being transferred to a growth plate containing trypticase soy broth (TSB). The TSB plate was incubated at 37° C. and read for the presence/absence of growth at 24 hours. […] This microorganism is representative of natural contaminants in many consumer and industrial applications.

The text below walks through data of patent publication US20140322076A1, “ANTIMICROBIAL COMPOSITION” (priority 2011, published 2014).

Regarding `Cc1cc(O)ccc1C(C)C` [3:6, 4-isopropyl-3-methylphenol], the NMBS in experiment [1] turned out to be 7.78 log CFU/ml.
As for `CC(C)=C1CCC(C)(O)CC1` (stereo not drawn) [3:4, gamma-terpineol], in experiment [1], the NMBS was 7.84 log CFU/ml.
Turning to `Cc1cc(O)cc(C(C)C)c1` [1:8, 3-isopropyl-5-methylphenol], the “NMBS (mean bacterial survival)” value in experiment [1] came out at 0 log CFU/ml.
Consider `Cc1cc(O)ccc1C(C)C` [1:12, 4-isopropyl-3-methylphenol], for which the “NMBS (mean bacterial survival)” value in experiment [1] came to 0 log CFU/ml.
Turning to `CC1=CCC(O)(C(C)C)CC1` (stereo not drawn) [1:5, terpineol], in experiment [1], the “NMBS (mean bacterial survival)” value was found to be 0 log CFU/ml.
Turning to `CC(C)=C1CCC(C)(O)CC1` (stereo not drawn) [3:2, gamma-terpineol], in experiment [1], the NMBS was determined as 0 log CFU/ml.
Take `Cc1ccc(C(C)C)c(O)c1` [thymol, thymol (2-isopropyl-5-methylphenol)]: the “MBC (Minimum Biocidal Concentration)” value in experiment [1] worked out at 0.05 % w/v. For the same compound, the MBC in experiment [2] is above 0.2 % w/v.
`CC1=CCC(O)(C(C)C)CC1` (stereo not drawn) [1:6, terpineol]: the “NMBS (mean bacterial survival)” value in experiment [1] was found to be 7 log CFU/ml.
Turning to `Cc1cc(O)ccc1C(C)C` [4-isopropyl-3-methylphenol], the “MBC (Minimum Biocidal Concentration)” value in experiment [1] was 0.075 % w/v. In experiment [2], the MBC was above 0.2 % w/v and the “15 second bactericidal efficacy (in words)” value is on record as “complete kill in all 4 replicates”.
For the compound `Cc1cc(O)cc(C(C)C)c1` [1:9, 3-isopropyl-5-methylphenol], the “NMBS (mean bacterial survival)” value in experiment [1] came out at 7.6 log CFU/ml.
In the case of `CC(C)=C1CCC(C)(O)CC1` (stereo not drawn) [3:1, gamma-terpineol], the NMBS in experiment [1] is on record as 0 log CFU/ml.
As for `Cc1ccc(C(C)C)c(O)c1` [1:1, thymol], in experiment [1], the “NMBS (mean bacterial survival)” value amounted to 0 log CFU/ml.
In the case of `Cc1cc(O)ccc1C(C)C` [3:7, 4-isopropyl-3-methylphenol], in experiment [1], the NMBS is listed as 7.79 log CFU/ml.
Take `Cc1cc(O)ccc1C(C)C` [3:5, 4-isopropyl-3-methylphenol]: in experiment [1], the NMBS is on record as 4.98 log CFU/ml.
On to `CC1=CCC(C(C)(C)O)CC1` (stereo not drawn) [alpha-terpineol], for which the “reduction of the terpineol concentration required for complete kill” value in experiment [1] (0.4% alone to […] in combination with […] w/v 4-isopropyl-3-methylphenol or 3-isopropyl-5-methylphenol) was determined as 2.7 fold. For the same compound, in experiment [3], the ΣFBC was 1.00 and the “MBC of the component alone (MBCA, MBCB)” value amounted to 0.6 weight %. In addition, the MBC in experiment [2] is reported as above 0.5 % w/v.
With `CC1=CCC(O)(C(C)C)CC1` (stereo not drawn) [1:7, terpineol], in experiment [1], the “NMBS (mean bacterial survival)” value came out at 7 log CFU/ml.
As to `CC1=CCC(O)(C(C)C)CC1` (stereo not drawn) [1:4, terpineol], the “NMBS (mean bacterial survival)” value in experiment [1] was 0 log CFU/ml.
As for `Cc1ccc(C(C)C)c(O)c1` [1:3, thymol], the “NMBS (mean bacterial survival)” value in experiment [1] is recorded as above 7 log CFU/ml.
Take `CC(C)=C1CCC(C)(O)CC1` (stereo not drawn) [gamma-terpineol]: the “MBC (Minimum Biocidal Concentration)” value in experiment [1] turned out to be 0.3 % w/v.
`Cc1ccc(C(C)C)c(O)c1` [1:2, thymol]: in experiment [1], the “NMBS (mean bacterial survival)” value came to 0 log CFU/ml.
`Cc1cc(O)cc(C(C)C)c1` [3-isopropyl-5-methylphenol]: the “MBC (Minimum Biocidal Concentration)” value in experiment [1] came to 0.05 % w/v. Further, in experiment [3], the ΣFBC is recorded as 1.00 and the “MBC of the component alone (MBCA, MBCB)” value was found to be 0.5 weight %. For the same compound, in experiment [2], the MBC is listed as above 0.2 % w/v and the “15 second bactericidal efficacy (in words)” value is “complete kill in all 4 replicates”.
For the compound `CC(C)=C1CCC(C)(O)CC1` (stereo not drawn) [3:3, gamma-terpineol], the NMBS in experiment [1] turned out to be 0 log CFU/ml.
Regarding `Cc1cc(O)ccc1C(C)C` [1:13, 4-isopropyl-3-methylphenol], in experiment [1], the “NMBS (mean bacterial survival)” value is recorded as 7.6 log CFU/ml.
